{"source": "patent US20020039567A1", "about": "“Methods of treating bone or cartilage conditions by the administration of creatine” (priority 1998, published 2002)", "origin": "cited, not measured here", "key": {"[1]": {"system": "chick limb bud mesenchymal cells", "conditions": "cited from earlier work; for mineralization: addition of 1 and 2 mM ATP or 2 mM PCr; for rate of cell proliferation, rate of matrix synthesis, mean crystallite length, rate of mineral deposition: contrasted with cultures supplemented with inorganic phosphate"}, "[2]": {"system": "embryonic chick femora", "conditions": "cited from earlier work"}, "[3]": {"system": "SaOS-2 cells", "conditions": "cited from earlier work"}, "[4]": {"system": "CK activity in rat epiphyseal cartilage cells", "conditions": "cited from earlier work"}, "[5]": {"system": "CK activity in chondroblasts and osteoblasts", "conditions": "cited from earlier work"}}, "data": [{"molecule": "phosphocreatine [PCr]", "values": [{"measurement": "mineralization", "setting": "[1]", "value": "promoted"}, {"measurement": "rate of cell proliferation, rate of matrix synthesis, mean crystallite length, rate of mineral deposition", "setting": "[1]", "value": "does not alter"}, {"measurement": "perichondral ossification in the diaphysis", "setting": "[2]; 0.1 mM in chick embryo extract with 20% horse serum", "value": "accelerated"}, {"measurement": "deposition of calcium in the cartilage matrix of the epiphysis", "setting": "[2]; very crude preparations at 0.1 mM in chick embryo extract with 20% horse serum", "value": "accelerated"}, {"measurement": "alkaline phosphatase (ALP) activity", "setting": "[3]", "value": "increases"}]}, {"molecule": "Nc1ncnc2c1ncn2[C@@H]1O[C@H](COP(=O)(O)OP(=O)(O)OP(=O)(O)O)[C@@H](O)[C@H]1O", "note": "[ATP]", "values": [{"measurement": "mineralization", "setting": "[1]", "value": "promoted"}, {"measurement": "rate of cell proliferation, rate of matrix synthesis, mean crystallite length, rate of mineral deposition", "setting": "[1]", "value": "does not alter"}]}, {"molecule": "C[C@]12CC[C@@H]3c4ccc(O)cc4CC[C@H]3[C@@H]1CC[C@@H]2O", "note": "[E2, 17b-estradiol]", "values": [{"measurement": "increase in CK activity", "setting": "[4]", "value": 40, "unit": "%"}]}, {"molecule": "CC/C(=C(\\c1ccccc1)c1ccc(OCCN(C)C)cc1)c1ccccc1", "note": "[tamoxifen]", "values": [{"measurement": "effect of tamoxifen by itself", "setting": "[5]; high concentrations", "value": "stimulatory effects"}, {"measurement": "effect of E2 in presence of tamoxifen", "setting": "[5]; high levels of tamoxifen", "value": "inhibited"}]}]}
